Source: patent publication US7754685B2, “Methods and pharmaceutical compositions for the treatment and prevention of hepatitis C infection” (Scynexis, Inc., priority 2005, dated 2010)
Where two headings read alike, the source gives them in different places.

How the values were obtained:
HCV RNA replicon ET [1] = experiment: HCV RNA replicon assay in ET cell line, luciferase (LUC) endpoint, antiviral activity; assay type: cell-based; conditions: Hepatitis C virus; Example 6 (2′-C-methyl-cytidine combination experiment), single compound; read-out: EC50 of compound alone
Description: The compounds of the present invention were tested for activity against HCV using the methods adapted from those described by Kriger et al., 2001, Journal of Virology, 75:4614-4624, Pietschmann et al., 2002, Journal of Virology 76:4008-4021, and using HCV RNA constructs as described in U.S. Pat. No. 6,630,343. The contents of these references are hereby incorporated by reference in their entireties.
Compounds were examined in the human hepatoma cell line ET (lub ubi neo/ET), a HCV RNA replicon containing a stable luciferase (LUC) reporter. The HCV RNA replicon ET contains the 5′ end of HCV (with the HCV Internal Ribosome Entry Site (IRES) and the first few amino acids of the HCV core protein) which drives the production of a firefly luciferase (LUC), ubiquitin, and neomycin phosphotransferase (NeoR) fusion protein. Ubiquitin cleavage releases the LUC and NeoR proteins. The EMCV IRES element controls the translation of the HCV, […] NS3-NS5. The NS3 protein cleaves the HCV polyprotein to release the mature NS3, NS4A, NS4B, NS5A and NS5B proteins that are required for HCV replication. At the 3′ end of the replicon is the authentic 3′ NTR of HCV.
Cyclosporine A was also tested.

[2] = tested on: Bovine Viral Diarrhea Virus (BVDV), NADL strain; experiment: BVDV cytopathic effect drug-drug combination assay in MDBK cells (XTT), antiviral; assay type: cell-based; conditions: in combination with IFN-α
[3] = tested on: Madin-Darby bovine kidney (MDBK) cells; experiment: BVDV drug-drug combination assay, cytotoxicity to target cells; assay type: cell-based; conditions: in combination with IFN-α
Description: Phenazine methosulfate (PMS) solution was prepared at 0.15 mg/mL in PBS and stored in the dark at −20° C. XTT/PMS stock was prepared immediately before use by adding 40 μL of PMS per ml of XTT solution. Fifty microliters of XTT/PMS was added to each well of the plate and the plate was reincubated for 4 hours at 37° C. Plates were sealed with adhesive plate sealers and shaken gently or inverted several times to mix the soluble formazan product and the plate was read spectrophotometrically at 450/650 nm with a Molecular Devices Vmax plate reader.

HCV RNA replicon ET [4] = experiment: HCV RNA replicon drug-drug combination (checkerboard, MacSynergy II) antiviral synergy; assay type: cell-based
Description: Compounds and combinations were evaluated in the HCV replicon assay described in Example 2 with changes indicated below.
(§1) The HCV RNA replicon antiviral evaluation assay was utilized to examine the efficacy and cytotoxicity of two compounds (e.g., Drug 1 and Drug 2) in combinations of five versus nine half-log concentrations. The assay was performed using a microtiter plate format for allocation of media, drug, cells, and virus. […] Cells were processed 72 hr later when the cells were still sub-confluent. […] The cytotoxicity was evaluated as the concentration of the drug that reduced cell numbers as described in Example 2.
Compounds of this invention were tested as “Drug 2” at nine concentrations between 0.0078 to 2.0 μM. Interferon-alpha (Sigma) was tested as Drug 1 at 0.005 to 0.5 international units per mL (IU/mL). The data obtained from these checkerboard assays were analyzed with the MacSynergy II (v2.01) (Prichard & Shipman, 1990, Antiviral Res. 14:181-205) and Delta Graph (v1.5d) programs. Each data point used to create three-dimensional plots (FIGS. 1A-1C) was derived from the result of triplicate samples. The statistical relevance of the data was analyzed and plotted at one of three confidence levels (68%, 95% or 99%) to display combinatorial results as additive, synergistic or antagonistic.
Effects of the drug combinations were calculated based on the activity of each compound when tested alone. The expected additive antiviral protection was subtracted from the experimentally determined antiviral activity at each combination concentration resulting in a positive value (synergy), a negative value (antagonism) or zero (additive). […] Slightly synergistic activity and highly synergistic activity have been operationally defined as yielding synergy volumes of 50-100 and >100, respectively.
(§2) Compounds and combinations were evaluated in the HCV replicon assay described in Example 5 with changes noted below.
as §2
(§3) Effects of the drug combinations were calculated based on the activity of each compound when tested alone. The expected additive antiviral protection was subtracted from the experimentally determined antiviral activity at each combination concentration resulting in a positive value (synergy), a negative value (antagonism), or zero (additivity). The results of the combination assays are presented three dimensionally at each combination concentration, yielding a surface of activity extending above (synergy) or below (antagonism) the plane of additivity. The volume of the surface is calculated and expressed as a synergy volume (in units of concentration times concentration times percent; e.g. μM2%, nM2%, nMμM %, etc.) calculated at the 95% confidence interval.

[5] = tested on: human hepatoma cell line ET; experiment: HCV RNA replicon drug-drug combination, cytotoxicity volume; conditions: in combination with Compound 3; FIG. 3B
Description: as §1, §2, §3

[6] = tested on: human hepatoma cell line ET; conditions: for IC90: read-out: Cytotoxicity IC90
HCV = conditions: interferon as single agent or with ribavirin; cited from earlier work
[7] = in combination with 2′-C-methyl-cytidine, 95% confidence interval
[8] = in combination with IFNα, 95% confidence interval
[9] = read-out: Cytotoxicity IC50, Example 2, ET cells, 72 h, colorimetric assay
[10] = Example 2, ET cells, 72 h, colorimetric assay
[11] = read-out: IC50 of compound alone (cytotoxicity), Example 5 (IFNα combination experiment), single compound

In the case of `C[C@@]1(O)[C@H](O)[C@@H](CO)O[C@H]1n1ccc(N)nc1=O` [2′-C-methyl-cytidine, reference compound], the EC50 (HCV RNA replicon ET [1]) is reported as 0.75 µM.

For `CC=CCC(C)C(O)C1C(=O)NC(CC)C(=O)N(C)C(OCCN(C)C)C(=O)N(C)C(CC(C)C)C(=O)NC(C(C)C)C(=O)N(C)C(CC(C)C)C(=O)NC(C)C(=O)NC(C)C(=O)N(C)C(CC(C)C)C(=O)N(C)C(CC(C)C)C(=O)N(C)C(C(C)C)C(=O)N1C` (stereo not shown) [C, 3-(2-N,N-dimethylaminoethoxy)cyclosporin], the “drug interaction, anti-BVDV” value [2] was “Additive” and the “cytotoxicity interaction of the combination” value (from here on “cytotoxicity interaction”) [3] was “Antagonistic cytotoxicity”.

With `CC=CCC(C)C(O)C1C(=O)NC(CC)C(=O)N(C)C(SCCN(C)C)C(=O)N(C)C(CC(C)(C)O)C(=O)NC(C(C)C)C(=O)N(C)C(CC(C)C)C(=O)NC(C)C(=O)NC(C)C(=O)N(C)C(CC(C)C)C(=O)N(C)C(CC(C)C)C(=O)N(C)C(C(C)C)C(=O)N1C` [Compound O, 3-[(R)-2-(N,N-dimethylamino)ethylthio-Sar]-4-(gamma-hydroxymethylleucine)cyclosporin] the antiviral synergy volume (HCV RNA replicon ET [4]; [7]) was 228 μM^2%, the “drug interaction (antiviral) of the combination” value (shortened to “drug interaction (antiviral)”) (HCV RNA replicon ET [4]; [7]) was “highly synergistic (Slightly synergistic activity and highly synergistic activity have been operationally defined as yielding synergy volumes of 50-100 and >100, respectively)” and the “drug interaction (antiviral)” value (HCV RNA replicon ET [4]; in combination with Compound 3 (HCV NS3-4A protease inhibitor), FIG. 3A) was “additive or mildly synergistic”. For the same compound, the antiviral synergy volume (HCV RNA replicon ET [4]; [8]) was 122 IU/mLμM %, the “drug interaction (antiviral)” value (HCV RNA replicon ET [4]; [8]) was “highly synergistic (Slightly synergistic activity and highly synergistic activity have been operationally defined as yielding synergy volumes of 50-100 and >100, respectively)” and the “cytotoxicity interaction” value [5] was “antagonistic cytotoxicity”. For the same compound, the “cytotoxicity interaction” value [3] was “Antagonistic cytotoxicity”, the IC50 [6, 9] was 13.4 µM and the IC90 [6, 10] was > 20 µM. For the same compound, the IC50 [6, 11] was > 2 µM and the IC50 ([6]; read-out: IC50 of compound alone (cytotoxicity), Example 6, single compound) was > 2 µM.

For `CC=CCC(C)C(O)C1C(=O)NC(CC)C(=O)N(C)C(OC)C(=O)N(C)C(CC(C)(C)O)C(=O)NC(C(C)C)C(=O)N(C)C(CC(C)C)C(=O)NC(C)C(=O)NC(C)C(=O)N(C)C(CC(C)C)C(=O)N(C)C(CC(C)C)C(=O)N(C)C(C(C)C)C(=O)N1C` (stereo not shown) [Compound T, 3-(methoxy)-4-(gamma-hydroxymethylleucine)cyclosporin], the antiviral synergy volume (HCV RNA replicon ET [4]; [8]) was 6 IU/mLμM %, the IC50 [6, 9] was > 2 µM and the IC90 [6, 10] was > 2 µM. The IC50 [6, 11] was > 2 µM.

In the case of interferon, the “share of the subject population in which the virus is eradicated” value (HCV) is listed as 33-46%.
